Measurements reported in patent US20240277606A1, “METHODS FOR THE PULSED DELIVERY OF BIOACTIVE AGENTS” (University of Mississippi, priority 2021, published 2024).

Legend:
5HT2A receptor = target: T1, 5HT2A receptor (Homo sapiens, UniProt P28223); assay: In vitro bioactivity: calcium flux (Fluo-8) in 5HT2A serotonin receptor cells; format: cell-based; settings: 5 μM, 1 hr treatment, versus PBS control
T1 construct: host or cells: Chem-1 cells (parental control HTSCHEM-1RTA)
Experimental: Briefly, 5HT2A serotonin receptor cells (Millipore Sigma, HTS082RTA) and chem-1 parental control cells (Millipore Sigma, HTSCHEM-1RTA) were seeded in 96 well plates (5000 cells-100 μl/well of 50,000 cells/ml solution) and allowed to adhere overnight. […] After 1 hr, Fluo-8 green dye solution (Abcam, ab112129) was added to the cells, incubated 30 min at 37° C., and then incubated for 30 minutes at room temperature, followed by fluorescence measurements on a microplate reader.

[1] = In vitro release from single-layered CAPP films; format: physicochemical; settings: for release rate compared with Rhodamine dye: from 0.1 mm thick CAPP films
Experimental: Next, drug release from single-layered CAPP films of 0.1, 0.2, 0.3, and 0.4 mm thickness was quantified. Drug release was measured by encapsulating Rhodamine fluorescent dye within the films and closely matched the erosion times reported above. Complete release from 0.1 mm thick films occurred after ˜18 hrs (FIG. 4A). Complete release from 0.2 mm thick films occurred after ˜36 hrs (FIG. 4A). Complete release from 0.3 mm thick films occurred after ˜60 hrs (FIG. 4A). Complete release from 0.4 mm thick films occurred after ˜78 hrs (FIG. 4A). Importantly, release of 5HT2A agonists from 0.1 mm thick CAPP films was also measured, since 0.1 mm thick films are used to encapsulate drug in the multilayered films.

[2] = Pilot pharmacokinetics of DOI from subcutaneously implanted 0.1 mm CAPP films; format: in vivo; settings: DOI-loaded 0.1 mm CAPP film, subcutaneous, CD-1 mice
Source text: Single-layered films loaded with DOI and blank single-layered films have been constructed. These films were sterilized and implanted subcutaneously in the dorsal flap of CD-1 mice in an initial pilot experiment. This pilot experiment enabled optimization of blood collection time points, ensure the ability to detect DOI with current bioanalytical techniques, and will inform the design of the rest of the in vivo studies. Briefly, films were implanted subcutaneously followed by blood and organ collection at 8, 16, and 24 hrs to monitor blood pharmacokinetics of DOI released from the 0.1 mm thick CAPP films in vivo. […] The concentration of DOI in the blood of mice returned to baseline by 16 hrs and remained at baseline through 24 hrs. […] This pilot experiment was repeated to: 1) sample at earlier time points for better overall fidelity and 2) to also determine the concentration of DOI in major organs, particularly the brain. […] As expected based on the plasma pharmacokinetics, it was observed that the peak concentration of DOI in the brain, liver, and kidneys was ˜2-4 hrs (FIGS. 13C-13F). […] The release profile of the same dose of DOI from 0.4 mm thick films can also be measured, as can the release profile of DOI from multilayered CAPP films with three DOI-loaded 0.1 mm thick films separated by 0.4 mm thick blank films.

[3] = Follow-up plasma and organ pharmacokinetics of DOI from subcutaneously implanted 0.1 mm CAPP films; format: in vivo, CD-1 mice; settings: post-implantation of 0.1 mm thick CAPP films, subcutaneous
Source text: Single-layered films loaded with DOI and blank single-layered films have been constructed. These films were sterilized and implanted subcutaneously in the dorsal flap of CD-1 mice in an initial pilot experiment. This pilot experiment enabled optimization of blood collection time points, ensure the ability to detect DOI with current bioanalytical techniques, and will inform the design of the rest of the in vivo studies. Briefly, films were implanted subcutaneously followed by blood and organ collection at 8, 16, and 24 hrs to monitor blood pharmacokinetics of DOI released from the 0.1 mm thick CAPP films in vivo. […] The concentration of DOI in the blood of mice returned to baseline by 16 hrs and remained at baseline through 24 hrs. […] This pilot experiment was repeated to: 1) sample at earlier time points for better overall fidelity and 2) to also determine the concentration of DOI in major organs, particularly the brain. […] As expected based on the plasma pharmacokinetics, it was observed that the peak concentration of DOI in the brain, liver, and kidneys was ˜2-4 hrs (FIGS. 13C-13F). DOI was cleared from the plasma as well as the brain, liver, and kidneys by ˜12 hrs post-implantation. The release profile of the same dose of DOI from 0.4 mm thick films can also be measured, as can the release profile of DOI from multilayered CAPP films with three DOI-loaded 0.1 mm thick films separated by 0.4 mm thick blank films.

[4] = Pulsed delivery of DOI from subcutaneously implanted multilayer CAPP films coated with PSA; format: in vivo; settings: seven-layer CAPP film, subcutaneous
Source text: The multilayered CAPP films used for this study had seven layers, where layers 1, 4, and 7 were DOI-loaded 0.1 mm thick CAPP films at 70:30 CAP:P ratio and layers 2, 3, 5, and 6 were unloaded (Blank) 0.4 mm thick CAPP films at 90:10 CAP:P ratio. The layered devices were then coated on all sides but one (the top of layer 1) with the biocompatible polymer polysebacic acid (PSA). After implantation, the anticipated pulsed release schedule of DOI was observed, with three distinct DOI pulses where peak concentrations in the plasma occurred at ˜2, 12, and 24 hrs post-implantation.

[5] = In vitro release kinetics from multilayered CAPP films (Rhodamine as model drug); format: physicochemical
Source text: The layering strategy (i.e., alternating 0.1 mm and 0.4 mm films) was chosen based on the results in FIGS. 4A-4B showing that 0.1 mm films erode in ˜24 hrs while 0.4 mm films erode in ˜70-80 hrs. Additionally, each layer was engineered to degrade by either bulk or surface erosion based on the function of that particular layer. The drug-loaded, 0.1 mm thick layers should degrade via bulk erosion such that the drug is rapidly released from these layers in a bolus. However, the “blank” 0.4 mm layers should erode via surface erosion to ensure gradual degradation of the blank layer from “top-to-bottom” to maintain ordered pulses of release over time. Therefore, the absorption of water into polymeric films composed of a range of CAP:P ratios was examined, since bulk erosion occurs in materials where the rate of water absorption is greater than the degradation rate. By contrast, surface erosion occurs in materials where the rate of degradation is greater than the rate of water absorption into the material. […] Therefore, multilayered films with 0.1 mm drug-loaded layers composed of 70:30 (bulk-eroding) CAPP films and 0.4 mm blank layers composed of 90:10 (surface eroding) CAPP films were produced. Lastly, the erosion time for CAPP films of CAP:P ratios varying from 70:30-90:10 was examined to inform the construction of multilayer devices that are to be composed of both 70:30 and 90:10 CAPP films. […] As film thickness increases, erosion time of the films increases proportionally.
We constructed multilayer CAPP films of alternating 0.1 mm bulk eroding, drug-loaded layers and 0.4 mm surface eroding, blank layers and observed drug release kinetics from these films using Rhodamine as a model drug. […] However, in these preliminary results the third drug pulse is not obvious and the gaps between pulses have some variability. A new layering design was implemented to counter these shortcomings; including adding two “blank” layers between each drug-loaded film, as well as having “blank” layers on the bottom of the device to maintain device structure through the third drug pulse.

[6] = multilayer film, alternating 0.1 mm drug-loaded and 0.4 mm blank layers

T1 sequence (P28223 whole entry): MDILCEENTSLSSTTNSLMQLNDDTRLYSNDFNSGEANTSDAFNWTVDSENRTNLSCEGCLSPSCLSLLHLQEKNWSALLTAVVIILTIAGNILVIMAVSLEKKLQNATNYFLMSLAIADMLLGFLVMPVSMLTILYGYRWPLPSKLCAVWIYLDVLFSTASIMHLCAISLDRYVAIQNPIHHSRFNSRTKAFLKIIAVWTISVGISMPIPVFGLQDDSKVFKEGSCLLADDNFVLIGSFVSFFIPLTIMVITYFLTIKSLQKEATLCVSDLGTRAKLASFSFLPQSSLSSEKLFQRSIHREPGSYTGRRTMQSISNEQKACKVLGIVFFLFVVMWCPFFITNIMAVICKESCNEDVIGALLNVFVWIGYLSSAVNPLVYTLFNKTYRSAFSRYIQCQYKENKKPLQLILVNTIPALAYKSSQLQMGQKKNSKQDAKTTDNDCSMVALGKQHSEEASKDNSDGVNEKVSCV

Q: For `CCN(CC)C(=O)[C@@H]1C=C2c3cccc4c3c(cn4C(=O)C3CC3)C[C@H]2N(C)C1` [1cp-LSD, N1-(cyclopropylmethanoyl)-lysergic acid diethylamide], which “calcium flux downstream of 5HT2A receptor activation” value (5HT2A receptor) is on record?
A: The value was “significant induction of calcium”.

Q: Which “release rate compared with Rhodamine dye” value [1] does the source give for `CC(=O)Oc1cccc2[nH]cc(CCN(C)C)c12` [4-acetoxy DMT, O-acetylpsilocin] here?
A: Its value is “very similar rate”.

Q: With `COc1cc(CC(C)N)c(OC)cc1I` (stereo not drawn) [DOI, 2,5-dimethoxy-4-iodoamphetamine] as the compound, how does the “release rate compared with Rhodamine dye” value [1] read?
A: Its value is “very similar rate”.

Q: What about the “calcium flux downstream of 5HT2A receptor activation” value (5HT2A receptor) of the same compound?
A: The value was “significant induction of calcium”.

Q: What about the detection in blood ([2]; 8 hrs post-implantation) of the same compound?
A: The detection in blood was “consistently detected”.

Q: And the “time at which blood concentration returned to baseline” value ([2]; remained at baseline through 24 hrs)?
A: The value was at most 16 h.

Q: What about the “time by which cleared from plasma, brain, liver, and kidneys” value [3] of the same compound?
A: The value was about 12 h.

Q: What about the “time of peak concentration in brain, liver, and kidneys” value [3] of the same compound?
A: Its value is 2 to 4 h.

Q: And the “time of peak concentration in plasma” value [3]?
A: The value was 2 h.

Q: What about the “concentration profile in brain, liver, and kidneys” value [4] of the same compound?
A: Its value is “matched the pulsed profile of the blood plasma”.

Q: What about the “time of peak plasma concentration, first pulse” value ([4]; post-implantation) of the same compound?
A: Its value is about 2 h.

Q: What about the “time of peak plasma concentration, second pulse” value ([4]; post-implantation) of the same compound?
A: Its value is about 12 h.

Q: What about the “time of peak plasma concentration, third pulse” value ([4]; post-implantation) of the same compound?
A: The value was about 24 h.

Q: Which “time to complete release” value ([1]; from 0.1 mm thick single-layered CAPP film) does the source give for `CCN(CC)c1ccc2c(-c3ccccc3C(=O)O)c3ccc(=[N+](CC)CC)cc-3oc2c1` [Rhodamine, rhodamine B] here?
A: Its value is about 18 h.

Q: And the “time to complete release” value ([1]; from 0.2 mm thick single-layered CAPP film)?
A: The value was about 36 h.

Q: And the “time to complete release” value ([1]; from 0.3 mm thick single-layered CAPP film)?
A: The value was about 60 h.

Q: What about the “time to complete release” value ([1]; from 0.4 mm thick single-layered CAPP film) of the same compound?
A: The value was about 78 h.

Q: What about the “time of peak of first drug pulse” value [5, 6] of the same compound?
A: The value was 16 h.

Q: What about the “time of peak of second drug pulse” value [5, 6] of the same compound?
A: Its value is 72 h.

Q: And the “time of peak of third drug pulse” value [5, 6]?
A: The value was about 120 h.

Q: And the “spacing between three intermittent drug pulses” value ([5]; second generation design, two blank layers between drug-loaded films and blank layers at bottom)?
A: Its value is about 70 h.
